The record followed here is ChEMBL document CHEMBL4819126, “Enantiomeric profiling of a chiral benzothiazole necroptosis inhibitor” (Bioorg Med Chem Lett, 2021).

Active and inactive are the calls of the source. No cut-off for these calls is given here.

In experiment [1] the test system is U-937. In words: Anti-necroptotic activity against TNFalph/Z-VAD-FMK-induced human U-937 cells assessed as cell viability measured after 19 to 21 hrs by CellTiter-Glo luminescent cell viability assay. Type of experiment: functional, cell-based. A general note: In ATP-based viability assays light output follows the ATP content of the culture.
Experiment [2] has as its system HT-29. In words: Anti-necroptotic activity in human HT-29 cells assessed as inhibition of TNFalpha/Z-VAD-fmk (TCZ)-induced necroptosis pretreated for 8 to 12 hrs. Type of experiment: functional, cell-based.
Experiment [3] addresses T1, Receptor-interacting serine/threonine-protein kinase 1 (Homo sapiens, UniProt Q13546).
T1 sequence (Q13546 whole entry): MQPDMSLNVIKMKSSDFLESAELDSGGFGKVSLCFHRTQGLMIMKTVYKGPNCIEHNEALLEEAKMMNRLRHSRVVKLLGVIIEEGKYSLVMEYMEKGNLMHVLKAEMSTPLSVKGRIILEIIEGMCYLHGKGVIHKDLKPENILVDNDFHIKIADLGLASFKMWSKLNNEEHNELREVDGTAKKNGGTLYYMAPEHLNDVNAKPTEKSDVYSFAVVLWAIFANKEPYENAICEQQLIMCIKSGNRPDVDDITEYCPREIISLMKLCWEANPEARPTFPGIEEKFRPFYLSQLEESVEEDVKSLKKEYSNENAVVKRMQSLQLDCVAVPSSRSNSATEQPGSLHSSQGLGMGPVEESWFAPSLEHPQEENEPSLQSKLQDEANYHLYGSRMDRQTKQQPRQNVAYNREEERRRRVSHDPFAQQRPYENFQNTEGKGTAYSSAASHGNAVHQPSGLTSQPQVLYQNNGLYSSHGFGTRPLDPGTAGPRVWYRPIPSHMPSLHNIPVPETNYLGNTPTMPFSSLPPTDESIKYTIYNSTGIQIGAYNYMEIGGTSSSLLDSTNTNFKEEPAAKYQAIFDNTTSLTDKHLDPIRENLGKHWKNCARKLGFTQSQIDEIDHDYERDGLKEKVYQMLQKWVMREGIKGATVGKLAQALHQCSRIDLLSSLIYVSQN
In words: Inhibition of human wild type RIPK1 (M1 to K305) expressed in bacterial system by kinomescan assay.

The target of experiment [4] is Receptor-interacting serine/threonine-protein kinase 3 (Homo sapiens, UniProt Q9Y572). Nature of the experiment: Inhibition of human wild type RIPK3 (M1 to Q307) expressed in bacterial system by kinomescan assay.
Chain of Receptor-interacting serine/threonine-protein kinase 3 (Q9Y572 whole entry): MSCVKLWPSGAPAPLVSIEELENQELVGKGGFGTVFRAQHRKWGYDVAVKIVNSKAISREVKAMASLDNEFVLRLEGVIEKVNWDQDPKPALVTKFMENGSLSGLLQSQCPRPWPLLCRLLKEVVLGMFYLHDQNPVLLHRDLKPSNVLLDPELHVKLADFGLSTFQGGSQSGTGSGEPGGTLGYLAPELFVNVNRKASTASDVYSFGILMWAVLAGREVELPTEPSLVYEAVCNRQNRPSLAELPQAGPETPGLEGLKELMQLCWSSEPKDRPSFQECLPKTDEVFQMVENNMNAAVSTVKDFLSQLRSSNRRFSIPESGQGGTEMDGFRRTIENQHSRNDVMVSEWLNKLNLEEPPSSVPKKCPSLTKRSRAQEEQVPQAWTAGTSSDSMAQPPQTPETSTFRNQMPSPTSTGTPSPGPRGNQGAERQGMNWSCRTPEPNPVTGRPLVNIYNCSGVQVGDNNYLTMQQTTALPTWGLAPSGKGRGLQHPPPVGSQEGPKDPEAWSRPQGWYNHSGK
The target in experiment [5] is T2, Receptor-interacting serine/threonine-protein kinase 1 (Homo sapiens) (UniProt Q13546).
T2 sequence (whole entry): T1 sequence (Q13546 whole entry)
Nature of the experiment: Inhibition of RIPK1 in human HT-29 cells assessed as inhibition of TSZ-induced RIPK1 phosphorylation at 1 uM measured upto 4 hrs by Western blot analysis. Conditions: time hrs <=4. Type of experiment: cell-based.

The target in experiment [6] is T2, Receptor-interacting serine/threonine-protein kinase 1 (Homo sapiens). Nature of the experiment: Inhibition of RIPK1 in human HT-29 cells assessed as inhibition of TSZ-induced RIPK3 phosphorylation at 1 uM measured upto 4 hrs by Western blot analysis. The class given is cell-based. Conditions: time hrs <=4. (In general: In western blotting, separated proteins are transferred to a membrane and probed.)

Experiment [7] shares this target. Nature of the experiment: Inhibition of RIPK1 in human HT-29 cells assessed as inhibition of TSZ-induced MLKL phosphorylation at 1 uM measured upto 4 hrs by Western blot analysis. The class given is cell-based. Conditions: time hrs <=4.
Experiment [8] has as its target T3, Receptor-interacting serine/threonine-protein kinase 1 (Mus musculus) (UniProt Q60855).
T3 sequence (whole entry): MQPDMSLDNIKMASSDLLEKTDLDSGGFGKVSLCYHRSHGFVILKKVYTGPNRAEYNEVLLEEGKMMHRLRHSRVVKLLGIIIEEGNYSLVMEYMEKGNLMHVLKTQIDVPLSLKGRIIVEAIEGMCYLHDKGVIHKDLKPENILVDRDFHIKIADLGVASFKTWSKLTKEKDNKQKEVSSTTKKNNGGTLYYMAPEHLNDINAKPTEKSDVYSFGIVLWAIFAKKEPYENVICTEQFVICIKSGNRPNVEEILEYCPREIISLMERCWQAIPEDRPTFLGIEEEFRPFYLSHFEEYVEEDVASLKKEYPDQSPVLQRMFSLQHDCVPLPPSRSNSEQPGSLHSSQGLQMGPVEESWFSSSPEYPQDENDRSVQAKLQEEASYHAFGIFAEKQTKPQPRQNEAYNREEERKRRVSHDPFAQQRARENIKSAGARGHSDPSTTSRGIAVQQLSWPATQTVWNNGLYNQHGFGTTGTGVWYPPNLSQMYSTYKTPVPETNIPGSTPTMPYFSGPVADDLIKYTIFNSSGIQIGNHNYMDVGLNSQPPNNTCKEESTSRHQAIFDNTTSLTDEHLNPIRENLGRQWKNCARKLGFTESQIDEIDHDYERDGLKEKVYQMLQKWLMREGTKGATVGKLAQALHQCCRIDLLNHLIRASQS
Nature of the experiment: Inhibition of RIPK1 in mouse L929 cells assessed as TZ-induced RIPK3 phosphorylation at 1 uM measured upto 4 hrs by Western blot analysis. The class given is cell-based. Conditions: time hrs <=4.

Experiment [9] addresses T3, Receptor-interacting serine/threonine-protein kinase 1 (Mus musculus). In words: Inhibition of RIPK1 in mouse L929 cells assessed as TZ-induced MLKL phosphorylation at 1 uM measured upto 4 hrs by Western blot analysis. Conditions: time hrs <=4. The class given is cell-based.
For experiment [10], the system named is HT-29. In words: Anti-necroptotic activity in human HT-29 cells assessed as inhibition of TSZ induced necroptosis measured after 12 hrs. The class given is functional, cell-based. Conditions: dose 0.025-25 µM.
The test system of experiment [11] is L929. Nature of the experiment: Anti-necroptotic activity in mouse L929 cells assessed as inhibition of TZ-induced necroptosis measured after 9 hrs. The class given is functional, cell-based.
Experiment [12] concerns HT-29. Nature of the experiment: Anti-necroptotic activity in human HT-29 cells assessed as inhibition of TNFalpha/TS induced necroptosis uM measured after 36 hrs. Type of experiment: functional, cell-based.
Experiment [13] relates to L929. In words: Anti-necroptotic activity in mouse L929 cells assessed as inhibition of mTNFalpha-induced necroptosis measured after 9 hrs. The class given is functional.
In experiment [14] the test system is HT-29. Nature of the experiment: Anti-necroptotic activity in human HT-29 cells assessed as inhibition of TSZ induced necroptosis at 0.25 uM measured after 12 hrs. Also noted: scale not given: the % may be the effect or the level left. The class given is functional.
The subject of experiment [15] is HT-29. Nature of the experiment: Anti-necroptotic activity in human HT-29 cells assessed as inhibition of TSZ induced necroptosis at 2.5 uM measured after 12 hrs. The class given is functional, cell-based.
Experiment [16] has as its system L929. Nature of the experiment: Anti-necroptotic activity against TNFalph/Z-VAD-FMK-induced mouse L929 cells assessed as cell viability measured after 19 to 21 hrs by CellTiter-Glo luminescent cell viability assay. The class given is functional, cell-based.

The term IC50 denotes the concentration that inhibits the measured activity by half. Broadly, the EC50 is the concentration that produces a half-maximal response. Broadly, the Kd is the equilibrium constant for the complex coming apart. One may read the inhibition as the drop in the measured response relative to a control, in per cent.

As to `CC(C)(C)C(=O)N1N=CC[C@@H]1c1ccccc1`, the IC50 in experiment [1] is over 10000 nM.

For `CC1(C)CC1C(=O)Nc1nc2ccc(Oc3ccc(F)c(NC(=O)Cc4cccc(C(F)(F)F)c4)c3)cc2s1` (racemic), the 50% effective concentration (EC50) in [2] was found to be 310 nM. Further, the dissociation constant (Kd) in experiment [3] stood at 480 nM; in [4], 270 nM. The inhibition entry in [5], in experiment [6] and in experiment [7] was “Active” each time. In addition, the inhibition in experiment [8] and in experiment [9] was 100% throughout. The Activity result in experiment [10], in [11] and in [12] was “Dose-Dependent Effect” throughout. The “inhibition (INH)” value in experiment [13] came to 100%.

As to `CN1C(=O)[C@H](NC(=O)c2cc(Cc3ccccc3)on2)COc2ccccc21`, the 50% inhibitory concentration (IC50) in [1] was over 10000 nM.

Take `CC1(C)C[C@@H]1C(=O)Nc1nc2ccc(Oc3ccc(F)c(NC(=O)Cc4cccc(C(F)(F)F)c4)c3)cc2s1`: in [2], the EC50 came out at 150 nM. The Kd in [3] worked out at 430 nM; in [4], 145 nM. Besides, the inhibition entry in experiment [5], in experiment [6], in experiment [7], in experiment [8], in experiment [9] and in experiment [15] was “Active” each time. Moreover, the Activity was 90% in [14], “Dose-Dependent Effect” in experiment [11] and “Dose-Dependent Effect” in experiment [12]. The “inhibition (INH)” value in experiment [13] worked out at 100%.

Consider `CN1C(=O)[C@@H](NC(=O)c2cc(Cc3ccccc3)on2)COc2ccccc21`, for which the IC50 in experiment [1] was found to be 10 nM.

Regarding `CC(C)(C)C(=O)N1N=CC[C@H]1c1ccccc1`, in experiment [16], the IC50 is 3.1 nM.

Take `CC1(C)C[C@H]1C(=O)Nc1nc2ccc(Oc3ccc(F)c(NC(=O)Cc4cccc(C(F)(F)F)c4)c3)cc2s1`: in experiment [2], the 50% effective concentration (EC50) was found to be 290 nM. Moreover, the results for the Kd in experiment [3] and in [4] were 1700 nM and 650 nM, respectively. The inhibition entry in experiment [5], in [6], in experiment [7], in experiment [8], in [9] and in [15] was “Active” throughout. Besides, the Activity entry in experiment [11] and in [12] was “Dose-Dependent Effect” throughout. The “inhibition (INH)” value in experiment [13] came to 100%.
